Several values for one entry are separate records, joined by “and”; a condition that tells them apart may be missing. Identical values can stand only once.
Assays:
U87NS cells = assay: Ex vivo treated cells, subcutaneous xenograft tumor initiation, U87NS; format: in vivo, nude mice
Procedure: U87NS cells were treated in vitro as follows. The cells were dissociated and 2.5×10^4 cells/ml were plated defined media and treated with DMSO, TMZ-only (200 μM), DAPT-only (1 μM or 5 μM), or TMZ+DAPT as described for recovery assays (FIG. 8A and Table 1). After 7 days, 2.5×10^5 live cells were counted using trypan blue and re-suspended in 100 μl PBS and subcutaneously injected into nude mice. Mice were monitored for tumor formation for up to 120 days post-injection and euthanized when tumors reached volumes of 1.5 to 2 cm3. Tumor initiation was observed when a palpable tumor formed. […] Impressively, none of the mice injected with TMZ+DAPT treated cells (0/7 mice) formed tumors, even after 90 days. When a higher number of live U87NS cells (3×10^6) were injected, we saw a similar trend (Table 1). Mice with 3×10^6 cells for U87NS DMSO (2/2 mice) and DAPT-only (2/2 mice) xenografts developed palpable tumors at 3 and 4 days, respectively, and 3/4 mice formed tumors in TMZ-only treated cells with an average latency of 25 days. With this higher number of cells injected, U87NS TMZ+DAPT xenografts formed tumors in only 1/4 mice with a longer latency of 43 days.
(§1) U87NS and U373NS neurospheres were dissociated and 2.5×10^4 cells/ml were plated in defined media and treated with DMSO, TMZ-only (200 μM), DAPT-only (1 μM or 5 μM), or TMZ+DAPT as described for recovery assays. After 7 days, 3×10^6 live cells were counted using trypan blue and re-suspended in 100 μl PBS. Cells were subcutaneously injected into the flanks of nude mice. Mice were monitored for tumor formation for up to 120 days post-injection and euthanized when tumors reached volumes of 1.5 to 2 cm^3.

GS7-2 = assay: Neurosphere formation / recovery / secondary neurosphere assay, GS7-2; format: cell-based, human
Procedure: (§2) The effect of chemotherapy on neurosphere formation was assayed in glioma neurosphere cultures. Cultures are treated with a single dose of the agent, e.g., TMZ and multiple doses of a GSI, e.g., DAPT to inhibit the Notch pathway. After the Treatment phase, the number of initial spheres (counted about 7 days after TMZ treatment) represents the number of proliferating CSC/progenitors (FIG. 1 for schematic). Recovery (counted 14 days after TMZ treatment) includes enlargement of the initial spheres and new spheres formed when CSC/progenitor cells quiescent as a result of chemotherapy resume cell proliferation. […] The cells used included U87NS, a neurosphere culture converted to neurosphere growth in defined medium from U87MG (an old Swedish line that is grown in conventional serum conditions); GS7-2, GS8-26 and GS6-22 primary neurosphere cultures that were obtained from grade IV GBM patient tumor samples and AS5-15, which was obtained from a grade III anaplastic astrocytoma.
(§3) To determine the effects of TMZ plus DAPT neurospheres, cells were plated as previously described (Mihaliak et al., Cancer Letts. 296, 168-177 (2010)). Immediately after plating, cells were treated with DMSO, DAPT-only, LY411,575 (LY)-only TMZ-only, TMZ+DAPT or TMZ+LY. The initial neurospheres were counted on day 7 for the converted cell lines and on day 10 for the slower growing primary lines. Neurosphere recovery was measured on day 14 or 20. The neurospheres were dissociated, re-plated and secondary neurosphere formation was measured on day 21 or 30.
(§4) Neurosphere cultures were dissociated to single cell suspensions by pH dissociation followed by filtration through 40 μm screens. For the neurosphere assay, 3,000 cells/ml of defined medium were seeded in 6-well plates. Immediately after plating, cells were treated with DMSO (Research Organics, Cleveland, Ohio) carrier control, TMZ-only, DAPT-only, or TMZ+DAPT. Additional DAPT was added on days 2 and 4. Neurospheres consisting of 10 or more cells were counted under a light microscope on day 7 for the converted cell lines. Primary lines have a slightly longer doubling time and were counted on day 10. After counting the neurospheres from the initial treatment, 2 ml of fresh defined medium was added to each well. DAPT was also added once more to the DAPT-only and TMZ+DAPT samples, and the cells were incubated for an additional 7 or 10 days. Neurospheres from the recovery period were counted on day 14 or day 20. To analyze secondary neurosphere formation, cells were collected, pelleted and dissociated to a single cell suspension by the pH method. Cells from each well were re-seeded into 6-well plates with 2 ml of defined medium. The number of secondary neurospheres formed by converted cell lines and primary cultures were counted on day 21 or day 30, respectively. All recovery assays were repeated with a minimum of 6 replicate sets of time points.
(§5) For the samples labeled “PRE-treat”, a single dose of DAPT was administered when the cells were plated, and then TMZ was added to the medium 24 hours later. For the “CO-treat” samples, single doses of TMZ and DART were added simultaneously when the cells were plated. Finally, samples labeled “POST-treat” were treated with TMZ, and then DAPT was added 24 hours later.

U373NS [1] = assay: Ex vivo treated cells, subcutaneous xenograft tumor initiation, U373NS; format: in vivo, nude mice; conditions: 3 × 10^6 live cells injected, TMZ 200 μM, DAPT 5 μM
Procedure: as §1
as §1, with “U373NS” for “U87NS and U373NS”, “(FIG. 8B and Table 1).” for “as described for recovery assays.”, “cm^3. The control DMSO cells formed palpable tumors in an average of 15 days for 7/7 xenografts, and DAPT-only treated cells formed tumors in an average of 16 days for 7/7 xenografts. […] Palpable tumors formed for 6/7 TMZ-treated U373NS xenografts in an average of 43 days. […] Only 1/7 mice formed a tumor in the TMZ+DAPT U373NS xenografts with an extended latency of 96 days.” for “cm^3.”

U87NS = assay: Neurosphere formation / recovery / secondary neurosphere assay, U87NS; format: cell-based, human
Procedure: as §2, §3, §4, §5

[2] = Toxicity by body weight during drug administration
Procedure: Tolerance of the drug treatments was determined by measuring the weight of the mice during the period of drug administration.
During drug administration, toxicity was determined by weight loss.

U373NS [3] = assay: Neurosphere formation / recovery / secondary neurosphere assay, U373NS; format: cell-based, human
Procedure: as §2, §3, §4

[4] = 2.5 × 10^5 live cells injected, TMZ 200 μM, DAPT 1 μM
[5] = secondary neurospheres divided by recovery neurospheres
[6] = 10 μM DAPT alone, counted day 7
[7] = low concentrations (1-5 μM) DAPT-only, day 7

For `Cn1nnc2c(C(N)=O)ncn2c1=O` [TMZ, temozolomide], which “Ex vivo Treated Xenograft Average Latency” value (U87NS cells; [4]) is on record?
The value was 32 days.

What about the “Ex vivo Treated Xenograft Incidence” value (U87NS cells; [4]) of the same compound?
The value was 6/7.

And the “Ex vivo Treated Xenograft Average Latency” value (U87NS cells; 3 × 10^6 live cells injected)?
Its value is 25 days.

What about the “Ex vivo Treated Xenograft Incidence” value (U87NS cells; 3 × 10^6 live cells injected) of the same compound?
Its value is 3/4.

And the “secondary neurosphere formation relative to DAPT POST-treatment” value (GS7-2; TMZ-only treatment, P<0.0001)?
The value was 85.7 fold.

What about the “recovery: increase in the number of neurospheres” value (“recovery: increase in the number” below) (GS7-2; day 20 relative to day 10, DAPT 1 μM) of the same compound?
The value was 1.8 fold.

What about the “secondary neurosphere formation, TMZ-only treated culture relative to TMZ+DAPT treated culture” value (GS7-2; day 30, P<0.001) of the same compound?
Its value is 45 fold.

And the “average number of cells per neurosphere capable of self-renewal” value (GS7-2; [5])?
The value was 38 cells per neurosphere.

What about the “Ex vivo Treated Xenograft Average Latency” value (U373NS [1]) of the same compound?
Its value is 43 days and 45 days.

And the “Ex vivo Treated Xenograft Incidence” value (U373NS [1])?
Its value is 6/7.

And the “secondary neurosphere formation relative to DAPT POST-treatment” value (U87NS; TMZ-only treatment, P<0.001)?
Its value is 5.7 fold.

What about the “recovery: increase in the number” value (U87NS; day 14 relative to day 7, TMZ 200 μM, DAPT 1 μM) of the same compound?
The value was 2 fold.

What about the “secondary neurosphere formation, TMZ-only treated culture relative to TMZ+DAPT treated culture” value (U87NS; day 21, P<0.0001) of the same compound?
The value was 36 fold.

And the “average number of cells per neurosphere capable of self-renewal” value (U87NS; [5])?
Its value is 8 cells per neurosphere.

And the “body weight, initially after TMZ injections” value [2]?
The value was “slight weight loss”.

What about the “body weight, remainder of treatment / final weight” value [2] of the same compound?
Its value is “no significant weight difference”.

And the “recovery: increase in the number” value (U373NS [3]; day 14 relative to day 7, TMZ 200 μM, DAPT 5 μM)?
Its value is 1.5 fold.

What about the “secondary neurosphere formation, TMZ-only treated culture relative to TMZ+DAPT treated culture” value (U373NS [3]; day 21, P<0.001) of the same compound?
The value was 23 fold.

What about the “average number of cells per neurosphere capable of self-renewal” value (U373NS [3]; [5]) of the same compound?
Its value is 3 cells per neurosphere.

With `C[C@H](NC(=O)Cc1cc(F)cc(F)c1)C(=O)N[C@H](C(=O)OC(C)(C)C)c1ccccc1` [DAPT, N-[N-(3,5-difluorophenacetyl)-L-alanyl]-(S)-phenylglycine t-butyl ester] as the compound, how does the “Ex vivo Treated Xenograft Average Latency” value (U87NS cells; [4]) read?
The value was 14 days.

What about the “Ex vivo Treated Xenograft Incidence” value (U87NS cells; [4]) of the same compound?
Its value is 7/7.

And the “Ex vivo Treated Xenograft Average Latency” value (U87NS cells; 3 × 10^6 live cells injected)?
Its value is 4 days.

What about the “Ex vivo Treated Xenograft Incidence” value (U87NS cells; 3 × 10^6 live cells injected) of the same compound?
The value was 2/2.

And the “decrease of neurosphere formation compared to DMSO controls” value (“decrease of neurosphere formation” below) (GS7-2; 10 μM DAPT alone, counted day 10)?
The value was 49%.

What about the “inhibition of neurosphere formation” value (GS7-2; low concentrations (1-5 μM) DAPT-only, day 10) of the same compound?
The value was “minimal inhibition”.

What about the “Ex vivo Treated Xenograft Average Latency” value (U373NS [1]) of the same compound?
Its value is 16 days.

What about the “Ex vivo Treated Xenograft Incidence” value (U373NS [1]) of the same compound?
The value was 7/7.

What about the “decrease of neurosphere formation” value (U87NS; [6]) of the same compound?
Its value is 41%.

What about the “inhibition of neurosphere formation” value (U87NS; [7]) of the same compound?
Its value is “minimal inhibition”.

What about the “decrease of neurosphere formation” value (U373NS [3]; [6]) of the same compound?
The value was 39%.

What about the “inhibition of neurosphere formation” value (U373NS [3]; [7]) of the same compound?
Its value is “minimal inhibition”.

Reference: US8637493B2, “Methods for treating glioblastoma” (University of Massachusetts, priority 2009, dated 2014)
